Measured values as given in US6579853B2, “Brain cell or nerve cell-protective agents comprising ginsenoside Rb1” (Japan Science and Technology Corporation, priority 1998, dated 2003).

What was measured:
[1] = test system: SH-SP rats with permanent occlusion of the MCA; conditions: cited from earlier work
[2] = test system: nerve cells; conditions: approximately 500 μM (550 μg/ml); cited from earlier work
[3] = test system: gerbils with occlusion of the common carotid arteries; conditions: i.c.v. infusion starting immediately after 3 or 3.5 minute occlusion; cited from earlier work
[4] = intracerebroventricular administration; cited from earlier work
[5] = test system: cerebrocortical neurons from rats at embryonic age 17; assay: Peroxidation of neuronal membrane lipids by ferrous sulfate and ascorbic acid (TBA); assay type: cell-based, rat; conditions: 48 hours pretreatment
Experimental: Then the medium was changed to a fresh medium containing ferrous sulfate and ascorbic acid but not containing ginsenoside Rb1 and the neuronal culture was maintained for 2 hours to generate hydroxyl radicals for giving an oxidative injury to neuronal membrane. The generated neuronal membrane lipid peroxide was determined by photometrically measuring a fixed amount of thiobarbituric acid (TBA) after solubilizing the cells with sodium dodecyl sulfate.
Then the medium was changed to a fresh medium containing ferrous sulfate and ascorbic acid but no ginsenoside Rb1, and the neuronal culture was maintained for 2 hours to generate hydroxyl radicals for giving oxidative injury to neuronal membrane. The generated neuronal membrane lipid peroxide was photometrically determined by measuring the fixed amount of thiobarbituric acid (TBA) after solubilizing the cells with sodium dodecyl sulfate.

[6] = test system: neuronal cells; conditions: 0.11-11 μg/ml; cited from earlier work
[7] = test system: SH-SP rats with MCA permanent occlusion; assay: Ratio of cerebrocortical infarction after MCA permanent occlusion, intravenous infusion; assay type: in vivo, rat
Experimental: (§1) First, we examined the actions of intravenous infusion of ginsenoside Rb1. For this purpose, for example, male SH-SP rats weighing 250˜300 g at the age of 12-13 weeks were used. The animals were bred in an air-conditioned room with a 12:12 hour light-dark cycle, and water and feeds were supplied ad libitum. The cortical branch of the left middle cerebral artery (MCA) was coagulated and cut. A single intravenous administration of ginsenoside Rb1 dissolved in physiological saline was conducted immediately after MCA permanent occlusion (6 μg or 60 μg), thereafter continuous intravenous administration of ginsenoside Rb1 was performed for 28 days by using an Alza mini osmotic pump (6 μg/day or 60 μg/day).
After the water maze tests at the 4th week, the SH-SP rats were anesthetized with chloral hydrate, and they were perfused and fixed transcardially with 0.1 mole phosphate buffer containing 4% paraformaldehyde. The brains were dissected out and cerebrocortical infarcted areas were photographed. Areas of the left cerebral hemisphere and the left cerebrocortical infarct lesions were measured on the photographs by using an image analysis device. The left cerebrocortical infarcted areas were divided by the left cerebral hemispheric areas to calculate ratios of the cerebrocortical infarction (%).
Male SH-SP rats at the age of 12-13 weeks, weighing 250-300 g, were used. The animals were bred in a room furnished with 12 hours light and dark cycles and water and feeds were supplied ad libitum. Blood pressure of the animals was 203±6.9 mmHg. The following experiments were conducted in accordance with the Guide for Animal Experimentation at Ehime University School of Medicine. […]
After termination of the water maze tests at the 4th week, the SH-SP rats were anesthetized with chloral hydrate, and they were perfused and fixed transcardially with 0.1 mole phosphate buffer containing 4% paraformaldehyde. […] Areas of the left cerebral hemisphere and the left cerebrocortical infarct lesions were measured on the photographs by using an image analysis device. […]

[8] = test system: transient forebrain ischemia model of gerbils; conditions: cited from earlier work
[9] = in vivo; cited from earlier work
[10] = test system: nerve cells; conditions: cited from earlier work
[11] = test system: cerebrocortical nerve cells (neurons) from rats at embryonic age 17
Experimental: After maintaining cerebrocortical nerve cells (neurons) from rats at embryonic age 17 in a serum-free culture medium for 4 or 5 days, the medium was replaced with a fresh medium containing or not containing ginsenoside Rb1 and the neurons were incubated for 24 hours. Then, SNP at the concentration of 100 μM was added to the medium for 10 minutes, and the nerve cells (neurons) were maintained in a medium containing ginsenoside Rb1 for 16 hours. Survival rate of the nerve cells was measured by using a redox indicator, alamar blue.
In the present experiments, ginsenoside Rb1 was added before and after SNP loading or only after SNP loading, and its effects were measured.
After maintaining cerebrocortical nerve cells (neurons) from rats at embryonic age 17 in a serum-free culture medium for 4 or 5 days, the medium was replaced with a fresh medium containing ginsenoside Rb1 at the concentrations of 1 fg/ml, 100 fg/ml and 100 pg/ml or no ginsenoside Rb1 (0 fg/ml), and the neurons were incubated for 24 hours. Thereafter a nitric oxide (NO) donor, sodium nitroprusside (SNP) at a concentration of 100 μM, was added to the medium for 10 minutes. Then the nerve cells (neurons) were maintained in a medium containing ginsenoside Rb1 for 16 hours. Survival rate of the nerve cells was measured by using a redox indicator, alamar blue.
Data are represented as a mean±SE. […]

[12] = test system: Bcl-xL mRNA; assay: Bcl-xL mRNA expression in cultured nerve cells (RT-PCR); assay type: cell-based, rat; conditions: 1 fg/ml or 100 fg/ml, 24 hours; compared with control (0 fg/ml)
Experimental: It was investigated whether ginsenoside Rb1 of the present invention can increase the expression of Bcl-xL gene or not. Experimental techniques followed those by Wen et al. (Wen T. -C., et al., J. Exp. Med., 188, 635-649, 1998). Total RNA was extracted from cultured nerve cells treated for 24 hours with ginsenoside Rb1 at the concentrations of 0 fg/ml, 1 fg/ml and 100 fg/ml. cDNA was prepared from DNase-treated total RNA (3 μg) by using oligo dT primer and reverse transcriptase (Moloney murine leukemia virus reverse transcriptase). Gene amplification reaction (polymerase chain reaction, PCR) was performed by using Taq polymerase under the following conditions: (1) 94° C., 2 minutes; (2) 94° C., 1.5 minute; 55° C., 1.5 minute; 72° C., 2 minutes constructed one cycle, and 25 cycles for Bcl-xL and 20 cycles for β-actin were performed; and (3) 72° C., 2 minutes.
PCR products were electrophoresed on 3% agarose gel and visualized by ethidium bromide staining. The expression of β-actin mRNA was used as an internal standard. […]

[13] = test system: brain; conditions: intraperitoneal administration; cited from earlier work
[14] = test system: gerbils loaded with 3 minute forebrain ischemia; assay: TUNEL staining of hippocampal CA1 field after 3 minute forebrain ischemia, intracerebroventricular administration; assay type: in vivo, gerbil; conditions: i.c.v. 2.5 or 25 ng single, then 60 or 600 ng/day for 1 week; 1 week after ischemia
Experimental: In order to analyze a suppressive effect of ginsenoside Rb1 on intracerebral apoptosis-like neuron death, the present inventors examined whether actually occurring pathological apoptosis-like neuron death in the mature brain can be reduced by administration of ginsenoside Rb1 or not. The three minute forebrain ischemia model of gerbils was used as model animal. It was reported that at one week after 3 minute ischemia, about one half of hippocampal CA1 pyramidal neurons degenerated (Sakanaka M., et al., Proc. Natl. Acad. Sci. USA, 95, 4635-4640, 1998). […] With this model animal, it was examined with TUNEL staining whether apoptosis-like neuron death on the 7th day after 3 minute ischemia could be suppressed by intracerebroventricular administration of ginsenoside Rb1 or not.
Immediately after 3 minute forebrain ischemia in gerbils under inhalation anesthesia, a single intracerebroventricular administration of ginsenoside Rb1 at the dose of 2.5 ng or 25 ng was performed, and subsequently ginsenoside Rb1 (60 ng/day or 600 ng/day) was continuously infused into the cerebral ventricles through an osmotic minipump for 1 week. At one week after 3 minute forebrain ischemia, the gerbils were perfused and fixed transcardially with phosphate buffer containing 4% paraformaldehyde under pentobarbital anesthesia and the brain was dissected out. […]

[15] = in vivo
[16] = test system: SH-SP rats with MCA permanent occlusion; assay: Water maze test (place navigation ability) after MCA permanent occlusion, intravenous infusion; assay type: in vivo, rat
Experimental: as §1
After MCA permanent occlusion, according to the conventional method (Zhang B. et al., J. Stroke Cerebrovasc. Dis., 7, 1-9, 1998), water maze tests were performed for 4 days at the 2nd week and the 4th week, respectively, and the place navigation abilities of SH-SP rats were determined.
Male SH-SP rats at the age of 12-13 weeks, weighing 250-300 g, were used. The animals were bred in a room furnished with 12 hours light and dark cycles and water and feeds were supplied ad libitum. Blood pressure of the animals was 203±6.9 mmHg. The following experiments were conducted in accordance with the Guide for Animal Experimentation at Ehime University School of Medicine. The cortical branch of the left middle cerebral artery (MCA) of SH-SP rats, were coagulated and cut, while their rectal temperature was maintained at 37±0.2° C. under inhalation anesthesia.
Immediately after MCA permanent occlusion, 60 μl of physiological saline containing ginsenoside Rb1 at a concentration of 1 μg/μl or 0.1 μg/μl was injected once into the left femoral vein. […]
After the MCA permanent occlusion according to the conventional method (Zhang B. et al., J. Stroke Cerebrovase. Dis., 7, 1-9, 1998), water maze tests were performed for 4 days at the 2nd week and the 4th week, respectively, and place navigation abilities of SH-SP rats were determined. […]

[17] = test system: cultured nerve cells; conditions: cited from earlier work
[18] = i.c.v. infusion starting immediately after permanent MCA occlusion

CC(C)=CCC[C@](C)(O[C@@H]1O[C@H](CO[C@@H]2O[C@H](CO)[C@@H](O)[C@H](O)[C@H]2O)[C@@H](O)[C@H](O)[C@H]1O)[C@H]1CC[C@]2(C)[C@@H]1[C@H](O)C[C@@H]1[C@@]3(C)CC[C@H](O[C@@H]4O[C@H](CO)[C@@H](O)[C@H](O)[C@H]4O[C@@H]4O[C@H](CO)[C@@H](O)[C@H](O)[C@H]4O)C(C)(C)[C@@H]3CC[C@]12C [ginsenoside Rb1]
suppressive effect on cerebral infarction ([1]; continuous i.c.v. infusion 0.6 μg/day after MCA occlusion): significant suppressive effect
curative effect on cerebral infarction ([1]; continuous i.c.v. infusion 6 μg/day or 0.06 μg/day after MCA occlusion): no curative effect
infarcted area in the cerebral cortex [1, 18]: significant reduction
ischemia-induced place navigation disability [1, 18]: ameliorated
apoptosis-like nerve cell death [2]: has a possibility to prevent
delayed neuronal death and learning disability [3]: suppresses
brain temperature, cerebral blood flow and blood pressure [4]: no effects
preventive effect on lipid peroxidation ([5]; 0.1-10 fg/ml): no preventive effects
preventive effect on peroxidation of nerve cell membrane lipid ([5]; 100 fg/ml): slightly confirmed
glutamate-mediated neurotoxicity [6]: reduce glutamate-mediated neurotoxicity
ratio of cerebrocortical infarction ([7]; i.v. 6 or 60 μg/day for 28 days, compared with physiological saline group): significantly reduced
actual volume of infarction reduced to (fraction of control) ([7]; i.v. administration, worked out from area ratio): about ¼
mean ratio of cerebrocortical infarction compared with physiological saline group ([7]; i.v. ginsenoside Rb1 groups, reduced to): ≤ 50%
delayed neuronal death and learning disability caused by 5 minute occlusion ([8]; i.p. 10 or 20 mg/kg once a day for one week in advance): significantly prevent
hippocampal CA1 pyramidal neurons rescued ([8]; i.p. 10 or 20 mg/kg/day before ischemic loading): about 30%
effect of intraperitoneal administration after ischemia ([8]; i.p. immediately after 3- or 5-minute occlusion of the common carotid arteries): no effect
detection in blood after oral administration [9]: can not be detected
neurotoxicity at high concentrations [10]: increased neurotoxicity
apoptosis of nerve cells after SNP treatment ([11]; 1-100 fg/ml, added before and after SNP (100 μM, 10 minutes) or only after SNP): significantly suppressed
concentrations in extracellular fluid that suppress apoptosis of nerve cells ([11]; SNP-treated cultured neurons): 1 to 100 fg/mL
expression of Bcl-xL mRNA [12]: increased
action on the brain [13]: tranquilizing action
TUNEL-positive nerve cells in hippocampal CA1 field [14]: significantly reduced in a dose-dependent manner
adverse effect on administered animals [15]: No adverse effect
learning disability in water maze tests, low dose ([16]; i.v. 6 μg/day, 3rd and 4th day at the 2nd and 4th week after MCA occlusion): significantly ameliorated
learning disability in water maze tests, high dose ([16]; i.v. 60 μg/day, 4th day at the 2nd week, 3rd and 4th days at the 4th week after MCA occlusion): significantly ameliorated
place navigation disability after MCA permanent occlusion (water maze) ([16]; intravenous infusion 6 or 60 μg/day for 28 days, compared with cerebral infarction group given physiological saline): significantly improved
neurotoxicity of free radicals ([17]; 0.1-100 fg/ml): reduce the neurotoxicity
neuronal necrosis caused by ferrous sulfate ([17]; 1-100 fg/ml previously admixed in culture medium): reduces neuronal necrosis
